Results on one molecule are retold here after patent US10376520B2, “Methods for the treatment of cardiovascular disorders” (Galapagos NV, priority 2015, dated 2019).

Structures are written as SMILES.

Experiment [1] deals with RA patients. As to the kind of experiment: ApoA-I level (Selectra autoanalyzer), Study 4. The class given is in vivo, human. The following applies: for ApoA-I level, 4 weeks CFB: 4 weeks change from baseline. On the procedure: (§1) Randomized double-blind, placebo-controlled add on study in subjects with active RA who have an inadequate response to MTX monotherapy, in combination with methotrexate, administered for 4 weeks in the treatment of subjects with active rheumatoid arthritis who have an inadequate response to methotrexate alone.
(§2) Compound 1 (dosed as a [Compound 1:HCl:3H2O]) capsules administered orally in 30 mg, 75 mg, 150 mg, or 300 mg doses per day for 4 weeks.
ApoAI, and ApoB were measured on the Selectra autoanalyzer (Sopachem BV, 44-RI Straat 33, 4051 AP Ochten, The Netherlands). All assays were commercially available from DiaSys Diagnostic Systems GmbH, Alte Strasse 9, 65558 Holzheim, Germany.

Experiment [2] deals with RA patients. The experiment is described as follows: Plasma Lecithin-Cholesterol Acyltransferase (LCAT) activity, Study 4. In kind it is in vivo, human. As to conditions: for LCAT level, 4 weeks CFB: 4 weeks change from baseline. The method, then: as §1, §2
LCAT activity was determined using a commercial available assay from Roar Biomedical. In short; incubation media contained 0.5 μL substrate reagent, 4 μL plasma in a final volume of 100 μL assay buffer. Incubations were performed for 1 h at 37° C. in a microtiter plate. Hereafter 200 μL READ reagent was added to the wells and after mixing, 200 μL was transferred to a black fluorescence compatible microplate. The plate was read at 340 nm excitation, 390 nm and 450 nm emission. LCAT activity was expressed as a ratio of the emission at 390 nm and 450 nm. These two wavelengths represent the LCAT substrate hydrolysed and not hydrolysed. An increase in the ratio indicates increased LCAT activity. Catalogue number RB-LCAT, Lot number used 13581392.

For the molecule `O=C(Nc1nc2cccc(-c3ccc(CN4CCS(=O)(=O)CC4)cc3)n2n1)C1CC1` [Compound 1, cyclopropanecarboxylic acid {5-[4-(1,1-dioxo-thiomorpholin-4-ylmethyl)-phenyl]-[1,2,4]triazolo[1,5-a]pyridin-2yl}-amide], the “ApoA-I level, 4 weeks CFB” value in the experiment with RA patients [1] (30 mg q.d.) turned out to be 5.2%; in the experiment on RA patients [1] (75 mg q.d.) it was 9.8%; with RA patients [1] (150 mg q.d.), 5.5%; in the experiment on RA patients [1] (300 mg q.d.) it was 27.9%. Besides, the ApoA-I level, Baseline was found to be 148 mg/dL with RA patients [1] (30 mg q.d.), 142 mg/dL with RA patients [1] (75 mg q.d.), 140 mg/dL in the experiment with RA patients [1] (150 mg q.d.) and 143 mg/dL with RA patients [1] (300 mg q.d.). The ApoA-I level, week 4 in the experiment with RA patients [1] (30 mg q.d.) was found to be 155 mg/dL; with RA patients [1] (75 mg q.d.) it was 156 mg/dL; with RA patients [1] (150 mg q.d.) it was 147 mg/dL; in the experiment with RA patients [1] (300 mg q.d.), 179 mg/dL. The “LCAT level, 4 weeks CFB” value came out at 0.4% in the experiment on RA patients [2] (30 mg q.d.), 4.2% in the experiment on RA patients [2] (75 mg q.d.), 2.9% with RA patients [2] (150 mg q.d.) and 4.4% with RA patients [2] (300 mg q.d.). For the same molecule, the LCAT activity (emission ratio) was 1.9 with RA patients [2] (30 mg q.d., baseline); 2 in the experiment on RA patients [2] (30 mg q.d., week 4); 2 with RA patients [2] (75 mg q.d., baseline); 2.1 with RA patients [2] (75 mg q.d., week 4); 1.9 in the experiment on RA patients [2] (150 mg q.d., baseline); 1.9 in the experiment on RA patients [2] (150 mg q.d., week 4). Also, the LCAT activity (emission ratio) in the experiment with RA patients [2] (300 mg q.d., baseline) worked out at 2; with RA patients [2] (300 mg q.d., week 4), 2.1.
